One series can be described thus: RP-TLC lipophilicity. It counts as physicochemical. The settings on record: for RMW (chromatographic lipophilicity parameter): RP-18 plates, methanol-water 65-95%, extrapolated to 0% methanol; for -S TLC (slope of linear equation): Table S3. As for the experimental part: RP-TLC analysis was performed using RP-18 TLC silica gel 60 F254 plates (10 × 20 cm, Merck, Darmstadt, Germany) with a DS-II chromatographic horizontal chamber (CHROMDES, Lublin, Poland). The mobile phase consisted of methanol (POCH, Gliwice, Poland) and water with the following concentrations of methanol: 65–95% (%, v/v), with a concentration change every 5%. After drying, the spots were observed under a UV lamp with a wavelength of 254 nm.

The next series has as its system G-361 melanoma. The experiment in a line: MTT cytotoxicity, G-361 melanoma. It counts as cell-based, human. The settings on record: for cytotoxic to melanoma cells (MTT test): G-361, concentration range used; for IC50: MTT test, 24 h treatment, G-361 melanoma. As for the experimental part: (§1) Biological studies were performed on human malignant melanoma G-361 (ATCC CRL-1424) cell lines and human fibroblast BJ (ATCC® CRL-2522™) cell lines purchased from the American Type Culture Collection (ATCC, Manassas, VA USA). The G-361 cell lines were maintained in McCoy’s medium (Corning, NY, USA), and the fibroblast BJ cell line was cultured in EMEM (Corning, NY, USA). All media were supplemented with 10% heat-inactivated fetal bovine serum (PAN-Biotech, Aidenbach, Germany), 100 U/mL penicillin, 100 μg/mL streptomycin and 0.25 μg/mL amphotericin B (Sigma-Aldrich, St. Louis, MO, USA). Cultures were maintained at 37 °C in a humidified atmosphere of 95% air and 5% CO2. The experiments were performed using cells from passage 5 to 10.
(§2) The cytotoxicity of the new compounds was evaluated against both the G-361 and BJ cell lines. Cells were seeded into 96-well plates at a density of 3 × 10^4 cells/well and 2 × 10^4 cells/well. After 24 h of incubation, when 70–80% confluence was reached, the culture medium was removed and replaced with the fresh one containing the tested compounds in the concentration range of 10, 25, 50, 75, 100, 125 and 250 μM. Cells were cultured at 37 °C in the presence of 5% air with CO2 for another 24 h. The cytotoxicity of the test compounds was evaluated by the MTT colorimetric assay, based on the ability of live cells to convert yellow soluble tetrazolium salts (3-[4,5-dimethylthiazol-2-yl]- 2,5-diphenyltetrazolium bromide, MTT) to purple insoluble formazan by cellular dehydrogenase. After 24 h of incubation with solutions of the test compounds, 4 mg/mL MTT solution (Thermo Scientific, Waltham, MA, USA) was added to the cell cultures and incubation was continued for 4 h at 37 °C. The MTT medium was then removed, and the resulting crystals were dissolved in 200 µL of DMSO. The solution was measured for absorbance at 570 nm using a Power Wave xs spectrophotometric plate reader, BioTek Instruments (Winooski, VT, USA). The experiment was performed three times with three replicates for each concentration. IC50 values were determined using the AAT Bioquest IC50 calculator.

In series [1] the test system is BJ normal fibroblast cell line. The experiment in a line: MTT cytotoxicity, BJ normal fibroblasts. In kind it is cell-based, human. The settings on record: for toxic to normal fibroblasts (MTT test): BJ, concentration range used; for IC50: MTT test. As for the experimental part:
as §1, §2
Background: Formazan colour is commonly taken as a measure of viable cells.

The test system of series [2] is dihydroorotate dehydrogenase (DHODH). The series can be described thus: qRT-PCR relative mRNA expression, DHODH. In kind it is cell-based, human. The settings on record: G-361, 48 h incubation, RQ = 2^-ΔΔCt, mean ± SD, control 1.000. As for the experimental part: (§3) […] cell line was seeded into 6-well plates in the concentration of 4 × 10^5 cells/well. Thiosemicarbazide derivatives were added when 70–80% of confluence was achieved. After 48 h of incubation, 1 mL of TRIzol™ Reagent (Invitrogen, Carlsbad, CA, USA) was added to lyse the cells. Lysates were centrifuged for 5 min at 12,000× g at 4 °C, and clear supernatants were processed according to the manufacturer’s protocol. Then, reverse transcription was performed using NG dART RT-PCR kit (EURx, Gdańsk, Poland) and a Mastercycler gradient thermocycler (Eppendorf, Hamburg, Germany). Thermal profile of the reaction: 10 min at 25 °C, then 50 min at 50 °C, and 5 min at 85 °C. mRNA levels of the genes DHODH, 18SRNA, and BACT were assessed using TaqMan Fast Advanced Master Mix (ThermoFisher, Waltham, MA, USA). mRNA levels of the following genes: CAT, SOD2,18SRNA TBP were assessed using PowerUp SYBR Green Master Mix (ThermoFisher, Waltham, MA, USA) in a 7500 Fast Real-Time PCR System (ThermoFisher, Waltham, MA, USA). Thermal profile of the reactions performed: 20 s at 95 °C, followed by 40 cycles of 3 s at 95 °C and 30 s at 60 °C. The reaction was carried out in triplicates. Relative expression of the tested genes was determined by qRT-PCR and the ΔΔCt method. The statistical analysis was performed with RQ values (relative quantification, RQ = 2^−∆ΔCt).

The next series concerns catalase (CAT). The experiment in a line: qRT-PCR relative mRNA expression, CAT. The settings on record: for CAT expression change: G-361; for Relative mRNA expression level CAT (RQ): G-361, 48 h incubation, RQ = 2^-ΔΔCt, mean ± SD, control 1.016. In kind it is cell-based, human. As for the experimental part:
as §3
On the technique in general: Quantitative PCR measures a nucleic acid by following its amplification.

A short description of the next series: RP-HPLC lipophilicity. In kind it is physicochemical. The settings on record: for logkW (chromatographic lipophilicity parameter): Kinetex C18, methanol-water 55-80%, extrapolated to 0% methanol; for -S HPLC (slope of linear equation): Table S3. As for the experimental part: RP-HPLC analysis was performed using a Merck-Hitachi LaChrom Elite System (Merck, Darmstadt, Germany) with diode array detector L-2455, thermostat L-2300, pump L-2130 and autosampler L-2200 with a Kinetex C18 (5µm; 150 × 4,6mm) chromatographic column (Phenomenex, Torrance, USA) as the stationary phase. The mobile phase consisted of methanol (Merck, Darmstadt, Germany) and water (double-distilled), which was degassed by use of the built-in membrane degasser. Subsequently, 5 μL methanolic solution (0.1%; m/v) of the selected samples was applied to the chromatographic column by use of a Hitachi L-2200 autosampler (LaChrom Elite, Hitachi-Merck, Darmstadt, Germany). The analysis was performed with a flow rate of 0.7 mL min^−1 in isocratic mode using various concentrations of organic modifier (methanol) in binary polar mobile phases; percentages of methanol in water were 55–80% (%, v/v) and changed by 5% per step. Chromatograms were detected at 254 nm and the temperature of the column was 25 °C. All experiments were repeated in triplicate and the final results were taken to be the arithmetic means. Dead time was measured using uracil (Calbiochem. Merck, Darmstadt, Germany).

[3] abbreviates: 24 h treatment, BJ normal fibroblasts, concentration range 10-250 µM, read-out: IC50 BJ.
Where [4] appears, read: BJ fibroblasts, further analysis, value in parentheses after >250, read-out: IC50 BJ (value in parentheses).

Read-outs that look alike come from different tables or passages of the source. A value given as a limit tells only on which side of the number the result lay.

Regarding `CSc1ccc(NC(=S)NNC(=O)COc2ccc(Cl)cc2Cl)cc1` [PK2, 1-(2,4-dichlorophenoxy)acetyl-4-(4-metylothiophenyl)thiosemicarbazide], in the series “RP-TLC lipophilicity”, the “RMW (chromatographic lipophilicity parameter)” value (from here on “RMW”) was 3.2058 and the “-S TLC (slope of linear equation)” value stood at 3.8253. The “cytotoxic to melanoma cells (MTT test)” value in the series with G-361 melanoma is “cytotoxic”. Half-maximal inhibition in the series on G-361 melanoma (Homo sapiens) (IC50) required 108 ± 6 µM. For the same molecule, in series [1], the “toxic to normal fibroblasts (MTT test)” value was “not toxic”. Also, in series [1] (Homo sapiens, Fibroblast, 24 h treatment, BJ normal fibroblasts, concentration range 10-250 µM, read-out: IC50 BJ), the IC50 (as a rule, the concentration that inhibits the measured activity by half) was over 250 µM. In addition, the IC50 in series [1] (Homo sapiens, Fibroblast, BJ fibroblasts, further analysis, value in parentheses after >250, read-out: IC50 BJ (value in parentheses)) was 828 µM. Also, the “Relative mRNA expression level DHODH (RQ)” value in series [2] came out at 0.463 ± 0.016. Moreover, in the series on catalase (CAT), the “CAT expression change” value was “reduction” and the “Relative mRNA expression level CAT (RQ)” value was 0.107 ± 0.013. Besides, in “RP-HPLC lipophilicity”, the “logkW (chromatographic lipophilicity parameter)” value (“logkW” below) is 4.7804 and the “-S HPLC (slope of linear equation)” value came out at 6.3581.

`O=C(COc1ccc(Cl)cc1Cl)NNC(=S)Nc1ccccc1I` [PK6, 1-(2,4-dichlorophenoxy)acetyl-4-(2-iodophenyl)thiosemicarbazide]: in “RP-TLC lipophilicity”, the “RMW” value is 2.8125 and the “-S TLC (slope of linear equation)” value was 3.3436. Also, in the series with G-361 melanoma, the “cytotoxic to melanoma cells (MTT test)” value was “cytotoxic” and the IC50 amounted to 112 ± 4.76 µM. Besides, the “toxic to normal fibroblasts (MTT test)” value in series [1] was “not toxic”. The IC50 in series [1] (setting [3]) was over 250 µM. Also, the IC50 in series [1] (setting [4]) worked out at 631 µM. Besides, the “Relative mRNA expression level DHODH (RQ)” value in series [2] is 0.824 ± 0.030. For the same molecule, in the series with catalase (CAT), the “CAT expression change” value was “increased” and the “Relative mRNA expression level CAT (RQ)” value is 2.691 ± 0.127. In “RP-HPLC lipophilicity”, the “logkW” value was 4.1439 and the “-S HPLC (slope of linear equation)” value is 5.4574.

As to `O=C(COc1ccc(Cl)cc1Cl)NNC(=S)Nc1cccc2ccccc12` [PK9, 1-(2,4-dichlorophenoxy)acetyl-4-(1-naphtyl)thiosemicarbazide], in “RP-TLC lipophilicity”, the “RMW” value is 3.1398 and the “-S TLC (slope of linear equation)” value amounted to 3.8345. In the series on G-361 melanoma, the “cytotoxic to melanoma cells (MTT test)” value is “cytotoxic” and the IC50 was determined as 113 ± 4 µM. The “toxic to normal fibroblasts (MTT test)” value in series [1] is “not toxic”. In addition, the 50% inhibitory concentration (IC50) in series [1] (setting [3]) is over 250 µM. Moreover, the IC50 in series [1] (setting [4]) is 894 µM. Also, the “Relative mRNA expression level DHODH (RQ)” value in series [2] was 0.375 ± 0.018. Also, in the series on catalase (CAT), the “CAT expression change” value was “reduction” and the “Relative mRNA expression level CAT (RQ)” value worked out at 0.354 ± 0.022. Besides, in “RP-HPLC lipophilicity”, the “logkW” value is 4.6425 and the “-S HPLC (slope of linear equation)” value is given as 6.1619.

The values are drawn from article PMC8961551, “Potential Anticancer Agents against Melanoma Cells Based on an As-Synthesized Thiosemicarbazide Derivative” (Biomolecules, 2022).
